Test results from US9637473B2, “Acrylamide derivatives as antimalarial agents” (priority 2013, dated 2017).
pIC50: −log10 of the molar value. Structures can show the parent of a compound that is named as a salt.

These compounds were tested on P. Falciparum NF54 (assay: Plasmodium falciparum in vitro assay ([3H]-hypoxanthine incorporation)). Details: P. Falciparum NF54, erythrocytic stages in human red blood cells, 50% human serum.
Assay type: cell-based
In short: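 Activity against the blood stages of Plasmodium falciparum growing in human red blood cells was measured by how much [3H]-hypoxanthine the parasites took up. Filters were dried, sealed in plastic foil containing 10 mL of scintillation fluid, and read on a Betaplate liquid scintillation counter. IC50 values came from sigmoidal inhibition curves fitted in Microsoft Excel.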

With `CN1CCC(N2CCC(N(Cc3ccc(N(C)c4ccncc4)cc3)C(=O)/C=C/c3ccc(C(F)(F)F)cc3)C(F)C2)CC1` (racemic) [Example 78, (±)-(E)-N-(cis-3-fluoro-1′-methyl-[1,4′-bipiperidin]-4-yl)-N-(4-(methyl(pyridin-4-yl)amino)benzyl)-3-(4-(trifluoromethyl)phenyl)acrylamide] as the compound, how does the pIC50 read?
Its pIC50 is 7.92.

Same assay, conditions: Plasmodium falciparum, Erythrocyte, P. Falciparum NF54, erythrocytic stages in human red blood cells, 50% human serum

`COc1ccc2nccc(Nc3ccc(CN(C(=O)/C=C/c4ccc(C(F)(F)F)cc4)C4CCN(C5CCCC5)CC4)cc3)c2c1` [Example 88, (E)-N-(1-Cyclopentyl-piperidin-4-yl)-N-[4-(6-methoxy-quinolin-4-ylamino)-benzyl]-3-(4-trifluoromethyl-phenyl)-acrylamide] was tested. Which pIC50 did it give?
The pIC50 was 7.68.

How did the pIC50 turn out when `CN1CCC(N(C)c2ccc(CN(C(=O)/C=C/c3ccc(C(F)(F)F)cc3)C3CCN(Cc4ccccc4)CC3)cc2)CC1` [Example 177, (E)-N-(1-Benzyl-piperidin-4-yl)-N-{4-[methyl-(1-methyl-piperidin-4-yl)-amino]-benzyl}-3-(4-trifluoromethyl-phenyl)-acrylamide] was run?
The pIC50 was 6.62.

How did the pIC50 turn out when `CCc1ccc(/C=C/C(=O)N(Cc2ccc(N(C)c3ccncc3)cc2)C2CCN(Cc3ccccc3)CC2)cc1` [Example 147, (E)-N-(1-Benzyl-piperidin-4-yl)-3-(4-ethyl-phenyl)-N-[4-(methyl-pyridin-4-yl-amino)-benzyl]-acrylamide] was run?
Its pIC50 is 6.80.

With `COc1ccc2nc(C)cc(Nc3ccc(CN(C(=O)/C=C/c4ccc(C(F)(F)F)cc4)C4CCN(C5CCCC5)CC4)cc3)c2c1` [Example 100, (E)-N-(1-Cyclopentyl-piperidin-4-yl)-N-[4-(6-methoxy-2-methyl-quinolin-4-ylamino)-benzyl]-3-(4-trifluoromethyl-phenyl)-acrylamide] as the compound, how does the pIC50 read?
The pIC50 was 7.68.

How did the pIC50 turn out when `Cc1cc(Nc2ccc(CN(CC3(O)CCN(C)CC3)C(=O)/C=C/c3ccc(C(F)(F)F)cc3)cc2)ccn1` [Example 175, (E)-N-(4-Hydroxy-1-methyl-piperidin-4-ylmethyl)-N-[4-(2-methyl-pyridin-4-ylamino)-benzyl]-3-(4-trifluoromethyl-phenyl)-acrylamide] was run?
Its pIC50 is 6.48.

With `CN(c1ccncc1)c1ccc(CN(C(=O)/C=C/c2ccc(C(F)(F)F)cc2)C2CCN(Cc3ccc(C#N)cc3)CC2)cc1` [Example 27, (E)-N-[1-(4-Cyano-benzyl)-piperidin-4-yl]-N-[4-(methyl-pyridin-4-yl-amino)-benzyl]-3-(4-trifluoromethyl-phenyl)-acrylamide] as the compound, how does the pIC50 read?
The pIC50 was 7.19.

`CN1CCC(N2CCC(N(Cc3ccc(Nc4ccncc4)nc3)C(=O)/C=C/c3ccc(C(F)(F)F)cc3)CC2)CC1` [Example 110, (E)-N-(1′-Methyl-[1,4′]bipiperidinyl-4-yl)-N-[6-(pyridin-4-ylamino)-pyridin-3-ylmethyl]-3-(4-trifluoromethyl-phenyl)-acrylamide] was tested. Which pIC50 did it give?
The pIC50 was 6.77.

How did the pIC50 turn out when `CN(c1ccncc1)c1ccc(CN(C(=O)/C=C/c2ccc(C(F)(F)F)cc2)C2CCN(C3CCCC3)CC2)cc1` [Example 5, (E)-N-(1-Cyclopentyl-piperidin-4-yl)-N-[4-(methyl-pyridin-4-yl-amino)-benzyl]-3-(4-trifluoromethyl-phenyl)-acrylamide] was run?
Its pIC50 is 7.96.

How did the pIC50 turn out when `CN(c1ccncc1)c1ccc(CN(C(=O)/C=C/c2ccc(C(F)(F)F)cc2)[C@H]2CCCN(C3CCCC3)C2)cc1` [Example 58, (S,E)-N-(1-cyclopentylpiperidin-3-yl)-N-(4-(methyl(pyridin-4-yl)amino)benzyl)-3-(4-(trifluoromethyl)phenyl)acrylamide] was run?
The pIC50 was 6.83.

How did the pIC50 turn out when `CN(c1ccncc1)c1ccc(CN(C(=O)/C=C/c2ccc(C(F)(F)F)cc2)C2CCN(Cc3ccccc3)CC2)cc1` [Example 6, (E)-N-(1-Benzyl-piperidin-4-yl)-N-[4-(methyl-pyridin-4-yl-amino)-benzyl]-3-(4-trifluoromethyl-phenyl)-acrylamide] was run?
Its pIC50 is 7.24.

With `O=C(/C=C/c1ccc(C(F)(F)F)cc1)N(Cc1ccc(-c2cccnc2)cc1)C1CCN(C2CCCC2)CC1` [Example 197, (E)-N-(1-Cyclopentyl-piperidin-4-yl)-N-(4-pyridin-3-yl-benzyl)-3-(4-trifluoromethyl-phenyl)-acrylamide] as the compound, how does the pIC50 read?
Its pIC50 is 6.74.

How did the pIC50 turn out when `CN(c1ccncc1)c1ccc(CN(C(=O)/C=C/c2ccc(C(F)(F)F)cc2)[C@H]2CC[C@H](N3CCCC3)CC2)cc1` [Example 193, (±)-trans-(E)-N-[4-(Methyl-pyridin-4-yl-amino)-benzyl]-N-(4-pyrrolidin-1-yl-cyclohexyl)-3-(4-trifluoromethyl-phenyl)-acrylamide] was run?
The pIC50 was 7.31.

How did the pIC50 turn out when `CN(c1ccncc1)c1ccc(CN(C(=O)/C=C/c2ccccc2F)C2CCN(Cc3ccccc3)CC2)cc1` [Example 157, (E)-N-(1-Benzyl-piperidin-4-yl)-3-(2-fluoro-phenyl)-N-[4-(methyl-pyridin-4-yl-amino)-benzyl]-acrylamide] was run?
The pIC50 was 6.72.

`Cc1c(/C=C/C(=O)N(Cc2ccc(N(C)c3ccncc3)cc2)C2CCN(Cc3ccccc3)CC2)cnn1C` [Example 164, (E)-N-(1-Benzyl-piperidin-4-yl)-3-(1,5-dimethyl-1H-pyrazol-4-yl)-N-[4-(methyl-pyridin-4-yl-amino)-benzyl]-acrylamide] was tested. Which pIC50 did it give?
Its pIC50 is 6.43.

With `COc1cc(Nc2ccc(CN(C(=O)/C=C/c3ccc(C(F)(F)F)cc3)C3CCN(C4CCCC4)CC3)cc2)ccn1` [Example 94, (E)-N-(1-Cyclopentyl-piperidin-4-yl)-N-[4-(2-methoxy-pyridin-4-ylamino)-benzyl]-3-(4-trifluoromethyl-phenyl)-acrylamide] as the compound, how does the pIC50 read?
Its pIC50 is 6.54.

`Cc1cc(Nc2ccc(CN(C(=O)/C=C/c3ccc(C(F)(F)F)cc3)C3CCN(C4CCCC4)CC3)cc2)c2ccccc2n1` [Example 85, (E)-N-(1-Cyclopentyl-piperidin-4-yl)-N-[4-(2-methyl-quinolin-4-ylamino)-benzyl]-3-(4-trifluoromethyl-phenyl)-acrylamide] was tested. Which pIC50 did it give?
The pIC50 was 7.37.

How did the pIC50 turn out when `CC(C)N1CCC(N(Cc2cccc(Nc3ccncc3F)n2)C(=O)/C=C/c2ccc(C(F)(F)F)cc2)CC1` [Example 131, (E)-N-[6-(3-Fluoro-pyridin-4-ylamino)-pyridin-2-ylmethyl]-N-(1-isopropyl-piperidin-4-yl)-3-(4-trifluoromethyl-phenyl)-acrylamide formate] was run?
The pIC50 was 6.52.

`Cc1cc(Nc2ccc(CN(C(=O)/C=C/c3ccc(C(F)(F)F)cc3)C3CCN(Cc4ncc5ccccn45)CC3)cc2)ccn1` [Example 46, (E)-N-(1-Imidazo[1,5-a]pyridin-3-ylmethyl-piperidin-4-yl)-N-[4-(2-methyl-pyridin-4-ylamino)-benzyl]-3-(4-trifluoromethyl-phenyl)-acrylamide] was tested. Which pIC50 did it give?
Its pIC50 is 6.78.

`CC(C)CCN1CC2(CC(N(Cc3ccc(N(C)c4ccncc4)cc3)C(=O)/C=C/c3ccc(C(F)(F)F)cc3)C2)C1` [Example 75, (E)-N-(2-isopentyl-2-azaspiro[3.3]heptan-6-yl)-N-(4-(methyl(pyridin-4-yl)amino)benzyl)-3-(4-(trifluoromethyl)phenyl)acrylamide] was tested. Which pIC50 did it give?
Its pIC50 is 7.52.

How did the pIC50 turn out when `CN(c1ccncc1)c1ccc(CN(C(=O)/C=C/c2ccc(C(F)(F)F)cc2)[C@@H]2CCN(C3CCCC3)C2)cc1` [Example 113, (E)-N-((R)-1-Cyclopentyl-pyrrolidin-3-yl)-N-[4-(methyl-pyridin-4-yl-amino)-benzyl]-3-(4-trifluoromethyl-phenyl)-acrylamide] was run?
The pIC50 was 7.11.

How did the pIC50 turn out when `CC(C)N1CCC(N(Cc2cncc(N(C)c3ccccn3)c2)C(=O)/C=C/c2ccc(C(F)(F)F)cc2)CC1` [Example 140, (E)-N-(1-Isopropyl-piperidin-4-yl)-N-[5-(methyl-pyridin-2-yl-amino)-pyridin-3-ylmethyl]-3-(4-trifluoromethyl-phenyl)-acrylamide formate] was run?
The pIC50 was 6.45.

How did the pIC50 turn out when `CN(c1ccncc1)c1ccc(CN(C(=O)/C=C/c2cccc(F)c2)C2CCN(Cc3ccccc3)CC2)cc1` [Example 156, (E)-N-(1-Benzyl-piperidin-4-yl)-3-(3-fluoro-phenyl)-N-[4-(methyl-pyridin-4-yl-amino)-benzyl]-acrylamide] was run?
Its pIC50 is 7.00.

With `CN1CCC(N2CCC(N(Cc3ccc(C(=O)c4ccncc4)cc3)C(=O)/C=C/c3ccc(C(F)(F)F)cc3)CC2)CC1` [Example 194, (E)-N-(1′-Methyl-[1,4′]bipiperidinyl-4-yl)-N-[4-(pyridine-4-carbonyl)-benzyl]-3-(4-trifluoromethyl-phenyl)-acrylamide] as the compound, how does the pIC50 read?
Its pIC50 is 6.90.

With `Cc1cc(Nc2ccc(CN(C(=O)/C=C/c3ccc(C(F)(F)F)cc3)C3CCN(Cc4nccn4C)CC3)cc2)ccn1` [Example 41, (E)-N-[1-(1-Methyl-1H-imidazol-2-ylmethyl)-piperidin-4-yl]-N-[4-(2-methyl-pyridin-4-ylamino)-benzyl]-3-(4-trifluoromethyl-phenyl)-acrylamide] as the compound, how does the pIC50 read?
Its pIC50 is 6.68.

How did the pIC50 turn out when `CC(C)N1CCC(N(Cc2cncc(Nc3ccncc3F)c2)C(=O)/C=C/c2ccc(C(F)(F)F)cc2)CC1` [Example 138, (E)-N-[5-(3-Fluoro-pyridin-4-ylamino)-pyridin-3-ylmethyl]-N-(1-isopropyl-piperidin-4-yl)-3-(4-trifluoromethyl-phenyl)-acrylamide formate] was run?
The pIC50 was 6.46.

`CN(c1ccncc1)c1ccc(CN(C(=O)/C=C/c2ccc(Cl)cc2)C2CCN(Cc3ccccc3)CC2)cc1` [Example 152, (E)-N-(1-Benzyl-piperidin-4-yl)-3-(4-chloro-phenyl)-N-[4-(methyl-pyridin-4-yl-amino)-benzyl]-acrylamide] was tested. Which pIC50 did it give?
The pIC50 was 7.12.

With `CN(c1ccncc1)c1ccc(CN(C(=O)/C=C/c2ccc(C(F)(F)F)cc2)[C@H]2CC[C@@H](N(C)C)CC2)cc1` [Example 191, (±)-cis-(E)-N-(4-Dimethylamino-cyclohexyl)-N-[4-(methyl-pyridin-4-yl-amino)-benzyl]-3-(4-trifluoromethyl-phenyl)-acrylamide] as the compound, how does the pIC50 read?
Its pIC50 is 7.47.

`CC(C)N1CCC(N(Cc2cncc(Nc3ccncn3)c2)C(=O)/C=C/c2ccc(C(F)(F)F)cc2)CC1` [Example 139, (E)-N-(1-Isopropyl-piperidin-4-yl)-N-[5-(pyrimidin-4-ylamino)-pyridin-3-ylmethyl]-3-(4-trifluoromethyl-phenyl)-acrylamide formate] was tested. Which pIC50 did it give?
The pIC50 was 6.45.
